# Target: T1, TAL amo (Aeromonas molluscorum, UniProt R1H7C8)
# T1 sequence (R1H7C8 1-531): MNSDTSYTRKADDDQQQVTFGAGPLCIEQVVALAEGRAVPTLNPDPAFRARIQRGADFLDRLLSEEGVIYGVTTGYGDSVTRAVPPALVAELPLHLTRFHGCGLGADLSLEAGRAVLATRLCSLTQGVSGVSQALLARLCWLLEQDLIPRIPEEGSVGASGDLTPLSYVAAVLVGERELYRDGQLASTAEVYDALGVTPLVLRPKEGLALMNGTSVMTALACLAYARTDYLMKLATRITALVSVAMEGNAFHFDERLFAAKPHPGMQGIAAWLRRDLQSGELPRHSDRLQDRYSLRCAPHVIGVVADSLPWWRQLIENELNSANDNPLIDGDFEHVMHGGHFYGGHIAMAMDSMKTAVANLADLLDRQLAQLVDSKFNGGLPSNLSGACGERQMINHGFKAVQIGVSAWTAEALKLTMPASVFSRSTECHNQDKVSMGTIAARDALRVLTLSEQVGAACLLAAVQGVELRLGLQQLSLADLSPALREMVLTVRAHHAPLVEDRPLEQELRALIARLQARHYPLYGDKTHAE
# Assay: UV assay, cinnamic acid formation at […] nm
# Format: biochemical
# Conditions: 10 mM substrate, 20 mM PBS pH 7.5, 25 °C
smiles,measurement,value
N[C@@H](Cc1ccccc1)C(=O)O [L-phenylalanine],"UV assay, cinnamic acid formation at 290 nm",They presented a slight activity towards L‐phenylalanine.

# — publication PMC9321829 (Chembiochem, 2022)
